The values that follow come from patent US9056832B2, “Pyridine compounds and the users thereof” (Purdue Pharma L.P., priority 2010, dated 2015).

Bounds are passed on as bounds.

The target in the first assay is human Nav1.7 (Homo sapiens (Human), UniProt Q15858). Briefly: FLIPR or FLIPR TETRA sodium dye assay with KCl and test article pre-incubation. It counts as cell-based. As to conditions: read-out: Nav1.7 IC50 (μM) ± SEM.
Chain of human Nav1.7 (Q15858 other isoform, or with tags, fused parts or gaps): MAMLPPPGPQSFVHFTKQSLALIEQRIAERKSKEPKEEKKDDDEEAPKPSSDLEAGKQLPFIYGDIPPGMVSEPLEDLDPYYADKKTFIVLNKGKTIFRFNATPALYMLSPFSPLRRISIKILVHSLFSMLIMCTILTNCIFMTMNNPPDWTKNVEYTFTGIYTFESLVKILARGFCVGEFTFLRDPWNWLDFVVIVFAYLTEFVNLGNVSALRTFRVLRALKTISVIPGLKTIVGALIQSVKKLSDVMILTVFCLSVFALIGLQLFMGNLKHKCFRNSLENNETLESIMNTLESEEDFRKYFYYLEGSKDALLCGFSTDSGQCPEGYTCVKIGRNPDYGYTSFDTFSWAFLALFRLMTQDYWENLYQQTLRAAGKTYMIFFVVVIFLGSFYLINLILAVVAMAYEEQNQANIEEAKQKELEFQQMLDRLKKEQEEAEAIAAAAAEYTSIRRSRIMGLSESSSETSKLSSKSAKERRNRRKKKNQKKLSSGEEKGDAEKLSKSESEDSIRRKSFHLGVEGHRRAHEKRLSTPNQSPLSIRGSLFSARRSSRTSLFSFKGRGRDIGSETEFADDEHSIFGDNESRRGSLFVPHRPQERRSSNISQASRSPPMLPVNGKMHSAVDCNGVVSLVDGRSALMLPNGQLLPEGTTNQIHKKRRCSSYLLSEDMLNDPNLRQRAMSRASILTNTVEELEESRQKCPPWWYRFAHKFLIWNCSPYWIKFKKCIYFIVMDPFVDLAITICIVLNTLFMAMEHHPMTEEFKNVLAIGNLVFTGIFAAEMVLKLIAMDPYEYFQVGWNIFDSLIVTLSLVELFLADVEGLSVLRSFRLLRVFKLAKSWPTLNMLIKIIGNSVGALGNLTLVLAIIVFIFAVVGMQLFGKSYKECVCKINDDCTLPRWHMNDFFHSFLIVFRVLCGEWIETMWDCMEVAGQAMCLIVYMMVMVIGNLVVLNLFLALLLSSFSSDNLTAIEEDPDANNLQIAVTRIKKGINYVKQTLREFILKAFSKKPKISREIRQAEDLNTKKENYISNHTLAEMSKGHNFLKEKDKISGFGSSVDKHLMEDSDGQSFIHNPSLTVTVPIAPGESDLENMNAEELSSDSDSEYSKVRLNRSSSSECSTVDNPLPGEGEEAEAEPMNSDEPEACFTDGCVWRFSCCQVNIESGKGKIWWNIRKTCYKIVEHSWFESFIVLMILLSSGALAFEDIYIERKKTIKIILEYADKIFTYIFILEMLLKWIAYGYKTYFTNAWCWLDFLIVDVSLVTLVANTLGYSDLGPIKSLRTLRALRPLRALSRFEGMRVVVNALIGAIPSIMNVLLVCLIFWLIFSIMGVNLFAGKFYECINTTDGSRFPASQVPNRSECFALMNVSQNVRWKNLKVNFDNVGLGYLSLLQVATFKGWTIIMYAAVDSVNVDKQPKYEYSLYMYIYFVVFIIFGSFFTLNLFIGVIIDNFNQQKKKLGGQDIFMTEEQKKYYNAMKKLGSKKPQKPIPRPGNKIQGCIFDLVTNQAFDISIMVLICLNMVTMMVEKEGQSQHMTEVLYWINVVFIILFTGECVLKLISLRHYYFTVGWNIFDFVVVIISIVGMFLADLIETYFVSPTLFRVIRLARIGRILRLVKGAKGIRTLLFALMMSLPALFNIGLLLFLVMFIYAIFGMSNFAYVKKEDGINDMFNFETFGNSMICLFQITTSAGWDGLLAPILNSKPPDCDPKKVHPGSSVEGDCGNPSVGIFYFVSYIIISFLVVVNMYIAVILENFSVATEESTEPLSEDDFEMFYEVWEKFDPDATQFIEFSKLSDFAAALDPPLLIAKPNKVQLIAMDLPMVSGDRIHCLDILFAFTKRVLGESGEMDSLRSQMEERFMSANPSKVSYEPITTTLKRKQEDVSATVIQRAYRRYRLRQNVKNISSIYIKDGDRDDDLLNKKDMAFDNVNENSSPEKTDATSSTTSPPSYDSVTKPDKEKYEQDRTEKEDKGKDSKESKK
The term IC50 denotes the concentration that gives 50% inhibition. Take `NC(=O)c1cc(NCC2CCNCC2)cc(-c2ccc(Oc3ccc(F)cc3)cc2)n1` [compound 57, 6-(4-(4-fluorophenoxy)phenyl)-4-((piperidin-4-ylmethyl)amino) picolinamide]: the IC50 was 0.83 ± 0.02 µM.

For `NC(=O)c1cc(NCCN2CCNC2=O)cc(-c2ccc(Oc3ccc(F)cc3)cc2)n1` [compound 58, 6-(4-(4-fluorophenoxy)phenyl)-4-((2-(2-oxoimidazolidin-1-yl)ethyl)amino) picolinamide], the IC50 is 1.57 ± 0.33 µM.

Take `NC(=O)c1cc(N2CCC(C(=O)O)CC2)cc(-c2ccc(Oc3ccc(F)cc3)cc2)n1` [compound 59, 1-(2-carbamoyl-6-(4-(4-fluorophenoxy)phenyl)pyridin-4-yl) piperidine-4-carboxylic acid]: the IC50 came out at 2.28 ± 0.2 µM.

Turning to `O=C1NCCN1CCNCCc1cccc(-c2ccc(Oc3ccc(F)cc3)cc2)n1` [compound 64, 1-(2-((2-(6-(4-(4-fluorophenoxy)phenyl)pyridin-2-yl)ethyl)amino)ethyl) imidazolidin-2-one], the IC50 was found to be 0.1 ± 0.3 µM.

As for `O=C1NCCN1CCNCc1cccc(-c2ccc(Oc3ncc(C(F)(F)F)cc3Cl)cc2)n1` [compound 66, 1-(2-(((6-(4-((3-chloro-5-(trifluoromethyl)pyridin-2-yl)oxy)phenyl)pyridin-2-yl)methyl)amino)ethyl) imidazolidin-2-one], the IC50 came to 0.13 ± 0.03 µM.

For `N#Cc1cc(Oc2ccc(-c3cccc(CNCCN4CCNC4=O)n3)cc2)ccc1C(F)(F)F` [compound 70, 5-(4-(6-(((2-(2-oxoimidazolidin-1-yl)ethyl)amino)methyl)pyridin-2-yl)phenoxy)-2-(trifluoromethyl) benzonitrile], the IC50 is 0.23 ± 0.08 µM.

As for `CS(=O)(=O)c1ccc(Oc2ccc(-c3cccc(CNCCN4CCNC4=O)n3)cc2)cc1` [compound 71, 1-(2-(((6-(4-(4-(methylsulfonyl)phenoxy)phenyl)pyridin-2-yl)methyl)amino)ethyl) imidazolidin-2-one], the IC50 is 0.35 ± 0.05 µM.

The assay is the same for the next values; noted with them: recombinant human Nav1.7 in HEK293 cells; CoroNa Green sodium dye; veratridine + scorpion venom; read-out: Nav1.7 IC50 (μM) ± SEM.
`NC(=O)c1cc(NCc2ncccn2)cc(-c2ccc(Oc3ccc(F)cc3)cc2)n1` [compound 49, 6-(4-(4-fluorophenoxy)phenyl)-4-((pyrimidin-2-ylmethyl)amino) picolinamide]: the IC50 turned out to be 0.1 ± 0.03 µM.

For the compound `CS(=O)(=O)NCc1cc(C(N)=O)nc(-c2ccc(Oc3ccc(F)cc3)cc2)c1` [compound 50, 6-(4-(4-fluorophenoxy)phenyl)-4-(methylsulfonamido-methyl)picolinamide], the IC50 amounted to 0.14 ± 0.03 µM.

Turning to `NC(=O)c1cc(CN2CCNCC2)cc(-c2ccc(Oc3ccc(F)cc3)cc2)n1` [compound 51, 6-(4-(4-fluorophenoxy)phenyl)-4-(piperazin-1-ylmethyl)picolinamide], the IC50 was determined as 0.18 ± 0.3 µM.

Turning to `NC(=O)CN1CCC(CNc2cc(C(N)=O)nc(-c3ccc(Oc4ccc(F)cc4)cc3)c2)CC1` [compound 52, 4-(((1-(2-amino-2-oxoethyl)piperidin-4-yl)methyl)amino)-6-(4-(4-fluorophenoxy)phenyl) picolinamide], the IC50 was found to be 0.2 ± 0.08 µM.

In the case of `NC(=O)c1cc(NCCN2CCOCC2)cc(-c2ccc(Oc3ccc(F)cc3)cc2)n1` [compound 53, 6-(4-(4-fluorophenoxy)phenyl)-4-((2-morpholinoethyl)amino) picolinamide], the half-inhibitory concentration (IC50) was found to be 0.22 ± 0.06 µM.

With `NC(=O)c1cc(NCCCn2ccnc2)cc(-c2ccc(Oc3ccc(F)cc3)cc2)n1` [compound 54, 4-((3-(1H-imidazol-1-yl)propyl)amino)-6-(4-(4-fluorophenoxy)phenyl) picolinamide], the IC50 came out at 0.22 ± 0.06 µM.

With `NC(=O)c1cc(N2CCNCC2)cc(-c2ccc(Oc3ccc(F)cc3)cc2)n1` [compound 55, 6-(4-(4-fluorophenoxy)phenyl)-4-(piperazin-1-yl) picolinamide], the IC50 was 0.23 ± 0.06 µM.

Turning to `NC(=O)c1cc(N2CCC(C(N)=O)CC2)cc(-c2ccc(Oc3ccc(F)cc3)cc2)n1` [compound 56, 4-(4-carbamoylpiperidin-1-yl)-6-(4-(4-fluorophenoxy)phenyl) picolinamide], the concentration for half-maximal inhibition (IC50) was found to be 0.31 ± 0.05 µM.

For `NC(=O)c1cc(CNCCN2CCNC2=O)cc(-c2ccc(Oc3ccc(F)cc3)cc2)n1` [compound 60, 6-(4-(4-fluorophenoxy)phenyl)-4-(((2-(2-oxoimidazolidin-1-yl)ethyl)amino)methyl)picolinamide], the IC50 came out at 0.16 ± 0.03 µM.

With `O=C1NCCN1CCNCc1cccc(-c2ccc(Oc3ccc(C(F)(F)F)cc3)cc2)n1` [compound 61, 1-(2-(((6-(4-(4-(trifluoromethyl)phenoxy)phenyl)pyridin-2-yl)methyl)amino)ethyl)imidazolidin-2-one], the IC50 was determined as 0.03 ± 0.01 µM.

As to `O=C1NCCN1CCNCc1cccc(-c2ccc(Oc3ccc(F)cc3)cc2)n1` [compound 62, 1-(2-(((6-(4-(4-fluorophenoxy)phenyl)pyridin-2-yl)methyl)amino)ethyl)imidazolidin-2-one], the IC50 came out at 0.07 ± 0.02 µM.

Regarding `N#Cc1ccc(Oc2ccc(-c3cccc(CNCCN4CCNC4=O)n3)cc2)c(C(F)(F)F)c1` [compound 65, 4-(4-(6-(((2-(2-oxoimidazolidin-1-yl)ethyl)amino)methyl)pyridin-2-yl)phenoxy)-3-(trifluoromethyl) benzonitrile], the concentration for half-maximal inhibition (IC50) stood at 0.12 ± 0.02 µM.

For `N#Cc1ccc(Oc2ccc(-c3cccc(CNCCN4CCNC4=O)n3)cc2)cc1` [compound 67, 4-(4-(6-(((2-(2-oxoimidazolidin-1-yl)ethyl)amino)methyl)pyridin-2-yl)phenoxy)benzonitrile], the IC50 was determined as 0.17 ± 0.01 µM.

In the case of `N#CCN(CCN1CCNC1=O)Cc1cccc(-c2ccc(Oc3ccc(F)cc3)cc2)n1` [compound 69, 2-(((6-(4-(4-fluorophenoxy)phenyl)pyridin-2-yl)methyl) (2-(2-oxoimidazolidin-1-yl)ethyl)amino) acetonitrile], the IC50 was 0.19 ± 0.05 µM.

For `NC(=O)CN(CCN1CCNC1=O)Cc1cccc(-c2ccc(Oc3ccc(F)cc3)cc2)n1` [compound 72, 2-(((6-(4-(4-fluorophenoxy)phenyl)pyridin-2-yl)methyl)(2-(2-oxoimidazolidin-1-yl)ethyl)amino) acetamide], the IC50 came to 0.76 ± 0.03 µM.

On to `CC(C)NC(=O)N1CCN(c2cc(C(N)=O)nc(-c3ccc(Oc4ccc(F)cc4)cc3)c2)CC1` [compound 73, 4-(2-carbamoyl-6-(4-(4-fluorophenoxy)phenyl)pyridin-4-yl)-N-isopropylpiperazine-1-carboxamide], for which the IC50 came out at 0.09 ± 0.03 µM.

As to `NC(=O)c1cc(N2CCN(c3ncccn3)CC2)cc(-c2ccc(Oc3ccc(F)cc3)cc2)n1` [compound 74, 6-(4-(4-fluorophenoxy)phenyl)-4-(4-(pyrimidin-2-yl)piperazin-1-yl) picolinamide], the IC50 stood at 0.09 ± 0.01 µM.

For the compound `NC(=O)c1cc(N2CCN(C(N)=O)CC2)cc(-c2ccc(Oc3ccc(F)cc3)cc2)n1` [compound 76, 4-(2-carbamoyl-6-(4-(4-fluorophenoxy)phenyl)pyridin-4-yl) piperazine-1-carboxamide], the IC50 was 0.53 ± 0.07 µM.

With `NC(=O)c1cc(N2CCN(C3=NCCCN3)CC2)cc(-c2ccc(Oc3ccc(F)cc3)cc2)n1` [compound 77, 6-(4-(4-fluorophenoxy)phenyl)-4-(4-(1,4,5,6-tetrahydropyrimidin-2-yl)piperazin-1-yl)picolinamide], the concentration for half-maximal inhibition (IC50) came out at 4.27 ± 0.69 µM.

For the compound `O=C(c1cc(N2CCNCC2)cc(-c2ccc(Oc3ccc(F)cc3)cc2)n1)N1CCNCC1` [compound 78, (6-(4-(4-fluorophenoxy)phenyl)-4-(piperazin-1-yl)pyridin-2-yl) (piperazin-1-yl) methanone], the concentration for half-maximal inhibition (IC50) was in the range of 10 to 20 µM.

Consider `O=C(NCCN1CCCCC1)c1cc(CO)cc(-c2ccc(Oc3ccc(F)cc3)cc2)n1` [compound 79, 6-(4-(4-fluorophenoxy)phenyl)-4-(hydroxymethyl)-N-(2-(piperidin-1-yl)ethyl)picolinamide], for which the IC50 was 0.41 ± 0.03 µM.

Regarding `N=C(N)N1CCN(c2cc(C(N)=O)nc(-c3ccc(Oc4ccc(F)cc4)cc3)c2)CC1` [compound 80, 4-(4-carbamimidoylpiperazin-1-yl)-6-(4-(4-fluorophenoxy)phenyl)picolinamide], the IC50 came to 1.3 ± 0.17 µM.

Regarding `NC(=O)c1cc(C(=O)NCCN2CCCCC2)nc(-c2ccc(Oc3ccc(F)cc3)cc2)c1` [compound 81, 6-(4-(4-fluorophenoxy)phenyl)-N2-(2-(piperidin-1-yl)ethyl)pyridine-2,4-dicarboxamide], the IC50 came out at 1.46 ± 0.43 µM.

Regarding `CC(C)NC(=O)N1CCN(c2cc(C#N)nc(-c3ccc(Oc4ccc(F)cc4)cc3)c2)CC1` [compound 82, 4-(2-cyano-6-(4-(4-fluorophenoxy)phenyl)pyridin-4-yl)-N-isopropylpiperazine-1-carboxamide], the IC50 turned out to be 1.94 ± 0.21 µM.

As to `N#Cc1cc(N2CCN(C(=N)N)CC2)cc(-c2ccc(Oc3ccc(F)cc3)cc2)n1` [compound 83, 4-(2-cyano-6-(4-(4-fluorophenoxy)phenyl)pyridin-4-yl) piperazine-1-carboximidamide], the IC50 was 1.95 ± 0.52 µM.

As for `NC(=O)c1cc(NC(=O)Nc2ccccc2)cc(-c2ccc(Oc3ccc(F)cc3)cc2)n1` [compound 84, 6-(4-(4-fluorophenoxy)phenyl)-4-(3-phenylureido) picolinamide], the half-maximal inhibitory concentration (IC50) worked out at 4.11 ± 0.93 µM.

`O=C(O)c1cc(C(=O)NCCN2CCCCC2)nc(-c2ccc(Oc3ccc(F)cc3)cc2)c1` [compound 85, 2-(4-(4-fluorophenoxy)phenyl)-6-((2-(piperidin-1-yl)ethyl)carbamoyl)iso nicotinic acid]: the IC50 stood at 6.59 ± 2.17 µM.

With `O=C(NCCN1CCCCC1)c1cc(-c2nnn[nH]2)cc(-c2ccc(Oc3ccc(F)cc3)cc2)n1` [compound 86, 6-(4-(4-fluorophenoxy)phenyl)-N-(2-(piperidin-1-yl)ethyl)-4-(1H-tetrazol-5-yl) picolinamide], the IC50 is 9.21 ± 1.15 µM.

On to `NC(=O)c1cc(NC(=O)NCC(=O)O)cc(-c2ccc(Oc3ccc(F)cc3)cc2)n1` [compound 87, 2-(3-(2-carbamoyl-6-(4-(4-fluorophenoxy)phenyl)pyridin-4-yl)ureido)acetic acid], for which the IC50 was greater than 20 µM.

For the compound `C[C@H](NCc1cccc(-c2ccc(Oc3ccc(F)cc3)cc2)n1)C(N)=O` [compound 88, (S)-2-({6-[4-(4-Fluoro-phenoxyl)-phenyl]-pyridin-2-yl-methyl}-amino) propionamide], the IC50 is 0.23 ± 0.09 µM.
